This note sets out measurements from patent publication US4462941A, “Dynorphin amide analogs” (The Regents of the University of California, priority 1982, dated 1984).

The test system of data set [1] is morphine tolerant animals. Briefly: Tail-flick analgesia, β-endorphin i.c.v. with or without dynorphin(1-13) i.c.v., morphine tolerant animals. The conditions noted are these: tolerant mice. The class given is in vivo. An excerpt:
(§1) Male simonesen ICR mice (Gilroy, CA) weighing between 20-25 g were housed for at least one day prior to experimentation, and used within 5 days. Each mouse was used only once.
The animals were separated into two groups. The one group was morphine tolerant (e.g., addicted); the other group was naive (e.g., not addicted). […] Exp. Ther., 167, pp. 1-8 (1969), incorporated herein by reference.
(§2) The ED50 values, their 95% confidence limits and significance of the potency ratio between two ED50 values were determined by the method of Litchfield and Wilcoxon, J. Pharmac. Exp. Ther., 96: 99-113 (1949), incorporated herein by reference.

Another data set has as its system mice. Briefly: Analgesic activity of the peptide by itself (mouse tail-flick). On the procedure:
(§3) Analgesia was measured by the tail-flick method of D'Amour and Smith, J. Pharmac. Exp. Ther., 72, pp. 74-79 (1941), incorporated herein by reference, as modified by Tulunay and Takemori, J. Pharmac. Exp. Ther., 190, pp. 395-400 (1974), incorporated herein by reference. […] Nonresponding animals were removed from the heat stimulus when reaction times exceeded 10 sec. to avoid the tail damage.
(§4) Drugs were injected 30 min. prior to testing, unless otherwise indicated.

For another data set, the system named is mouse vas deferens. The following applies: read-out: IC50 inhibiting the twitch of the mouse vas deferens.
For data set [2] the following is noted: compared with dynorphin(1-13).
The test system of data set [3] is morphine tolerant animals. Briefly: Tail-flick analgesia, morphine s.c. with or without peptide i.c.v., morphine tolerant animals. The data set is classed as in vivo. The conditions noted are these: tolerant mice. The procedure: as §1, §3, §4
The animals were separated into two groups. […] Exp. Ther., 167, pp. 1-8 (1969), incorporated herein by reference.
as §2

Where no end group is shown, it is not given here.

Usually IC50 stands for the concentration needed to halve the response being measured.

With β-endorphin, the “Analgesia (%)” value in data set [1] (β-endorphin 1 μg/mouse i.c.v. alone) was 10%; in data set [1] (β-endorphin 2 μg/mouse i.c.v. alone), 40%; in data set [1] (β-endorphin 6 μg/mouse i.c.v. alone), 100%. Further, the “ED50 of β-endorphin” value in data set [1] (β-endorphin i.c.v. alone) was “about 2.25 μg/mouse”.
Turning to “YGGFLRRIRP-NH2 [dynorphin(1-10) amide, Dynorphin(1-10)-NH2]”, the “behavior at huge doses” value in the data set with mice is given as “tends to produce convulsions”. The concentration for half-maximal inhibition (IC50) with mouse vas deferens was found to be 0.24 nM. Also, the “rate of metabolism by the host” value in data set [2] was “less quickly metabolized”.
On to `CC[C@H](C)[C@H](NC(=O)[C@H](CCCNC(=N)N)NC(=O)[C@H](CCCNC(=N)N)NC(=O)[C@H](CC(C)C)NC(=O)[C@H](Cc1ccccc1)NC(=O)CNC(=O)CNC(=O)[C@@H](N)Cc1ccc(O)cc1)C(=O)N[C@@H](CCCNC(=N)N)C(=O)N1CCC[C@H]1C(=O)N[C@@H](CCCCN)C(=O)N[C@@H](CC(C)C)C(=O)N[C@@H](CCCCN)C(=O)O` [dynorphin(1-13)], for which the concentration for half-maximal inhibition (IC50) in the data set with mouse vas deferens was 3.9 nM.
For the molecule `CN1CC[C@]23c4c5ccc(O)c4O[C@H]2[C@@H](O)C=C[C@H]3[C@H]1C5.O=S(=O)(O)O` [Morphine, morphine sulfate], the “Analgesia (%)” value was found to be 40% in data set [3] (morphine 60 mg/kg s.c. alone) and 90% in data set [3] (morphine 80 mg/kg s.c. alone).
